The term Ki denotes a dissociation constant, usually derived from enzyme kinetics or from competition with a known ligand.

Molecules are shown by their SMILES.

Ki and EC50 data for 22 compounds are collected here from patent publication US9321764B2, “Dihydro-pyrrolopyridinone inhibitors” (AbbVie Inc., priority 2013, dated 2016).

Assay [1] has as its target T1, BRD4 (BDI_K57-E168) (Homo sapiens, UniProt O60885).
T1 construct: BD1: amino acids K57-E168; made in house
Briefly: TR-FRET bromodomain binding assay, first bromodomain of BRD4. As to conditions: His-tagged BD1, 100 nM Alexa647 probe; TR-FRET protocol A-E given per row. In short, it runs like this:
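Ki values come from IC50s (4-parameter logistic) corrected for probe Kd and concentration, normalised to no-compound and 1 μM unlabelled probe controls. Probe displacement by TR-FRET used 8 nM BD1 (K57-E168), 100 nM Alexa647 probe, 1 nM Eu-anti-His, 20 mM phosphate pH 6.0, 2% DMSO, 1 h, room temperature.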
A general note: Time-resolved FRET reads energy transfer from a long-lived donor to a nearby acceptor.

Assay [2] deals with T2, BRD4 (BDII_E352-M457) (Homo sapiens, UniProt O60885).
T2 construct: proliferation; Protocol; made in house
Description: TR-FRET bromodomain binding assay, second bromodomain of BRD4. The note with it: His-tagged BD2, 30 nM Alexa647 probe; TR-FRET protocol A-E given per row. The gist of the method: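 His-tagged BRD4 BD2 ([…]) competed against an Alexa647-labelled BET-inhibitor probe in TR-FRET. Buffer was 20 mM sodium phosphate pH 6.0, 50 mM NaCl, 1 mM EDTA, 0.01% Triton X-100, 1 mM DTT, with method D DMSO series of 2.5 mM–800 nM (stock range). IC50 from 4-parameter fit, Ki from probe Kd and concentration.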

Assay [3] relates to breast cancer cell line MX-1. Description: MX-1 cell line proliferation assay. The note with it: Homo sapiens, MX1, 72 h, MX-1 cells, 3-day proliferation assay, Cell Titer Glo; read-out: Cellular proliferation EC50. It counts as cell-based. In short, it runs like this:
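Final compound concentrations spanned 0.0001 to 3 μM, added to 5000 cells/well plated the previous night in RPMI 1640 plus 10% FBS at 37 °C.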

Take `Cc1noc(C)c1S(=O)(=O)NCc1ccc(Oc2ccc(F)cc2F)c(-c2cn(C)c3c(=O)[nH]ccc23)c1` [Example 140, N-[4-(2,4-difluorophenoxy)-3-(1-methyl-7-oxo-6,7-dihydro-1H-pyrrolo[2,3-c]pyridin-3-yl)benzyl]-3,5-dimethyl-1,2-oxazole-4-sulfonamide]: the inhibition constant (Ki) stood at 490 nM in assay [1] and 817 nM in assay [2]. In assay [3], the EC50 amounted to 1820 nM.
In the same order, the values of `Cn1cc(-c2cc(NCc3cn4c(n3)CCC4)ccc2Oc2ccc(F)cc2F)c2cc[nH]c(=O)c21` [Example 176, 3-{2-(2,4-difluorophenoxy)-5-[(6,7-dihydro-5H-pyrrolo[1,2-a]imidazol-2-ylmethyl)amino]phenyl}-1-methyl-1,6-dihydro-7H-pyrrolo[2,3-c]pyridin-7-one] are 42.3 nM, 101 nM and 289 nM.
As for `Cn1cc(-c2cc(CNS(=O)(=O)CC(F)(F)F)ccc2Oc2ccc(F)cc2F)c2cc[nH]c(=O)c21` [Example 135, N-[4-(2,4-difluorophenoxy)-3-(1-methyl-7-oxo-6,7-dihydro-1H-pyrrolo[2,3-c]pyridin-3-yl)benzyl]-2,2,2-trifluoroethanesulfonamide], the inhibitory constant (Ki) in assay [1] came out at 27 nM; in assay [2], 109 nM. Besides, in assay [3], the EC50 was determined as 388 nM.
On to `Cn1cc(-c2cc(S(=O)(=O)N3CC(F)(F)C3)ccc2OCC2CC2)c2cc[nH]c(=O)c21` [Example 125, 3-{2-(cyclopropylmethoxy)-5-[(3,3-difluoroazetidin-1-yl)sulfonyl]phenyl}-1-methyl-1,6-dihydro-7H-pyrrolo[2,3-c]pyridin-7-one], for which the Ki is 69 nM in assay [1] and 92 nM in assay [2]. In assay [3], the EC50 turned out to be 267 nM.
For the compound `CN1CCN(Cc2ccc(Oc3ccc(F)cc3F)c(-c3cn(C)c4c(=O)[nH]ccc34)c2)CC1` [Example 116, 3-{2-(2,4-difluorophenoxy)-5-[(4-methylpiperazin-1-yl)methyl]phenyl}-1-methyl-1,6-dihydro-7H-pyrrolo[2,3-c]pyridin-7-one], the Ki was found to be 93 nM in assay [1] and 145 nM in assay [2]. In addition, in assay [3], the EC50 was determined as 578 nM.
Taken in the same sequence, the figures for `CCS(=O)(=O)Nc1ccc(Oc2ccc(F)cc2F)c(-c2cn(C)c3c(=O)[nH]c(C(=O)NCc4cccnc4)cc23)c1` [Example 192, 3-{2-(2,4-difluorophenoxy)-5-[(ethylsulfonyl)amino]phenyl}-1-methyl-7-oxo-N-(pyridin-3-ylmethyl)-6,7-dihydro-1H-pyrrolo[2,3-c]pyridine-5-carboxamide] were 0.9 nM, 1.3 nM and 10.7 nM.
As to `Cn1cc(-c2ccccc2Oc2ccccc2)c2cc[nH]c(=O)c21` [Example 1, 1-methyl-3-(2-phenoxyphenyl)-1,6-dihydro-7H-pyrrolo[2,3-c]pyridin-7-one], the Ki in assay [1] came to 85 nM; in assay [2], 313 nM. Besides, in assay [3], the EC50 was 584 nM.
In the case of `Cn1cc(-c2cc(NCc3ccc(C#N)cc3)ccc2Oc2ccc(F)cc2F)c2cc[nH]c(=O)c21` [Example 167, 4-({[4-(2,4-difluorophenoxy)-3-(1-methyl-7-oxo-6,7-dihydro-1H-pyrrolo[2,3-c]pyridin-3-yl)phenyl]amino}methyl)benzonitrile], the inhibitory constant (Ki) in assay [1] is 32.8 nM; in assay [2] it was 156 nM. In addition, the EC50 in assay [3] came to 338 nM.
For `Cn1cc(-c2cc(S(=O)(=O)N3CCCC3)ccc2O[C@H]2CC[C@H](N(C)C)CC2)c2cc[nH]c(=O)c21` [Example 144, 3-[2-{[trans-4-(dimethylamino)cyclohexyl]oxy}-5-(pyrrolidin-1-ylsulfonyl)phenyl]-1-methyl-1,6-dihydro-7H-pyrrolo[2,3-c]pyridin-7-one], the Ki is 8.2 nM in assay [1] and 107 nM in assay [2]. In assay [3], the EC50 is 73.1 nM.
Regarding `CCc1cc2c(-c3cc(CS(C)(=O)=O)ccc3Oc3ccc(F)cc3F)cn(C)c2c(=O)[nH]1` [Example 92, 3-{2-(2,4-difluorophenoxy)-5-[(methylsulfonyl)methyl]phenyl}-5-ethyl-1-methyl-1,6-dihydro-7H-pyrrolo[2,3-c]pyridin-7-one], the inhibition constant Ki in assay [1] was found to be 1.7 nM; in assay [2], 1.8 nM. Further, the EC50 in assay [3] stood at 8 nM.
In the same order, the values of `CCS(=O)(=O)NCc1ccc(Oc2ccc(F)cc2F)c(-c2cn(C)c3c(=O)[nH]ccc23)c1` [Example 106, N-[4-(2,4-difluorophenoxy)-3-(1-methyl-7-oxo-6,7-dihydro-1H-pyrrolo[2,3-c]pyridin-3-yl)benzyl]ethanesulfonamide] are 31 nM, 67 nM and 338 nM.
For `Cn1cc(-c2cc(S(C)(=O)=O)ccc2Oc2ccc(F)cc2)c2cc[nH]c(=O)c21` [Example 61, 3-[2-(4-fluorophenoxy)-5-(methylsulfonyl)phenyl]-1-methyl-1,6-dihydro-7H-pyrrolo[2,3-c]pyridin-7-one], the values for the inhibition constant Ki in assay [1] and in assay [2] were 18 nM and 43 nM, respectively. In addition, the EC50 in assay [3] is 125 nM.
In the same order, the values of `CCS(=O)(=O)C(C)c1ccc(Oc2ccc(F)cc2F)c(-c2cn(C)c3c(=O)[nH]ccc23)c1` (stereo not drawn) [Example 55, 3-{2-(2,4-difluorophenoxy)-5-[1-(ethylsulfonyl)ethyl]phenyl}-1-methyl-1,6-dihydro-7H-pyrrolo[2,3-c]pyridin-7-one] are 4.2 nM, 9.9 nM and 29 nM.
Regarding `Cn1cc(-c2cc(S(C)(=O)=O)ccc2NCC2CCCC2)c2cc[nH]c(=O)c21` [Example 68, 3-{2-[(cyclopentylmethyl)amino]-5-(methylsulfonyl)phenyl}-1-methyl-1,6-dihydro-7H-pyrrolo[2,3-c]pyridin-7-one], the results for the Ki in assay [1] and in assay [2] were 103 nM and 124 nM, respectively. The EC50 in assay [3] came to 38 nM.
`Cn1cc(-c2cc(S(C)(=O)=O)ccc2OCCC2CC2)c2c(Cl)c[nH]c(=O)c21` [Example 109, 4-chloro-3-[2-(2-cyclopropylethoxy)-5-(methylsulfonyl)phenyl]-1-methyl-1,6-dihydro-7H-pyrrolo[2,3-c]pyridin-7-one]: the Ki was 57 nM in assay [1] and 67 nM in assay [2]. Besides, the EC50 in assay [3] is 268 nM.
Turning to `Cn1cc(-c2cc(S(N)(=O)=O)ccc2Oc2ccc(F)cc2F)c2cc[nH]c(=O)c21` [Example 51, 4-(2,4-difluorophenoxy)-3-(1-methyl-7-oxo-6,7-dihydro-1H-pyrrolo[2,3-c]pyridin-3-yl)benzenesulfonamide], the results for the Ki in assay [1] and in assay [2] were 47 nM and 62 nM, respectively. Besides, the EC50 in assay [3] is 201 nM.
In the same order, the values of `CCS(=O)(=O)Nc1ccc(Oc2ccc(F)cc2F)c(-c2cn(C)c3c(=O)[nH]c(C(=O)NCCCO)cc23)c1` [Example 190, 3-{2-(2,4-difluorophenoxy)-5-[(ethylsulfonyl)amino]phenyl}-N-(3-hydroxypropyl)-1-methyl-7-oxo-6,7-dihydro-1H-pyrrolo[2,3-c]pyridine-5-carboxamide] are 2.01 nM, 3.85 nM and 82 nM.
As to `CCS(=O)(=O)Nc1ccc(Oc2ccc(F)cc2F)c(-c2cn(C)c3c(=O)[nH]c(C(=O)NCCN(C)C)cc23)c1` [Example 188, 3-{2-(2,4-difluorophenoxy)-5-[(ethylsulfonyl)amino]phenyl}-N-[2-(dimethylamino)ethyl]-1-methyl-7-oxo-6,7-dihydro-1H-pyrrolo[2,3-c]pyridine-5-carboxamide], the inhibition constant Ki in assay [1] amounted to 1.42 nM; in assay [2] it was 13.5 nM. Also, in assay [3], the EC50 came to 29.9 nM.
As for `CCS(=O)(=O)Nc1ccc(Oc2ccc(F)cc2F)c(-c2cn(C)c3c(=O)[nH]c(C(=O)NC)cc23)c1` [Example 200, 3-{2-(2,4-difluorophenoxy)-5-[(ethylsulfonyl)amino]phenyl}-N,1-dimethyl-7-oxo-6,7-dihydro-1H-pyrrolo[2,3-c]pyridine-5-carboxamide], the inhibitory constant (Ki) was 3.24 nM in assay [1] and 4.56 nM in assay [2]. In addition, the EC50 in assay [3] came to 43.6 nM.
As for `CCS(=O)(=O)Nc1ccc(OC2CCC(F)(F)CC2)c(-c2cn(C)c3c(=O)[nH]ccc23)c1` [Example 8, N-{4[(4,4-difluorocyclohexyl)oxy]-3-(1-methyl-7-oxo-6,7-dihydro-1H-pyrrolo[2,3-c]pyridin-3-yl)phenyl}ethanesulfonamide], the figures for the inhibitory constant (Ki) in assay [1] and in assay [2] were 1.6 nM and 6.4 nM, respectively. In assay [3], the EC50 was 33 nM.
As for `Cn1cc(-c2cc(CNS(=O)(=O)c3ccccc3)ccc2Oc2ccc(F)cc2F)c2cc[nH]c(=O)c21` [Example 141, N-[4-(2,4-difluorophenoxy)-3-(1-methyl-7-oxo-6,7-dihydro-1H-pyrrolo[2,3-c]pyridin-3-yl)benzyl]benzenesulfonamide], the Ki in assay [1] amounted to 64 nM; in assay [2], 495 nM. Also, the EC50 in assay [3] was determined as 980 nM.
Turning to `CCS(=O)(=O)C(C)c1ccc(Oc2ccc(F)cc2F)c(-c2cn(C)c3c(=O)[nH]ccc23)c1` (single isomer, unassigned) [Example 56], the values for the inhibition constant Ki in assay [1] and in assay [2] were 13 nM and 18 nM, respectively. In assay [3], the EC50 is 36 nM.
